Data on two substances can be found in paper PMC3877906, “Polypeptide Modulators of TRPV1 Produce Analgesia without Hyperthermia” (Marine Drugs, 2013).

The subject of assay [1] is TRPV1. The settings on record: ref [14], cited from earlier work. As for the experimental part: APHC3’s mode of action was measured on HEK-293 cells using a whole-cell patch clamp approach and single cell Ca^2+ imaging. […] APHC3 is highly homologous to APHC1, differing in four of 56 amino acids. APHC1 and APHC3 have a primary structure that is highly homologous to BPTI/Kunitz type seri ... || The residues responsible for APHC’s activity are not determined. […] These dif ...

The subject of another assay is ASIC3. Briefly: ASIC3 activity, oocyte electrophysiology or agonist-induced fluorescence readout. Format: cell-based. The settings on record: concentrations of up to 2 μM; data not shown.
Assay [2] has as its system TRPV1. Briefly: single cell Ca^2+ imaging, acid-induced (pH 5.5) responses of TRPV1-positive HEK-293 cells. The settings on record: for inhibition of acid responses: Fura-2, mean ± s.d. In kind it is cell-based, rat. As for the experimental part:
Figure 2 Effects of APHC3 on recombinant TRPV1 expressed in HEK-293 cells. (a) Resting current recorded from a TRPV1-positive cell held at −30 mV. […] Straight lines above the recording indicate application of APHC3 (Long line) and capsaicin (Short lines). The cells were stimulated and rinsed by rapid switching of the bath solution between the control solution and solutions containing the indicated compound. (b) Capsaicin responses in control and in the presence of the 300 nM APHC3 peptide. In each case, the control response was calculated as an average of two acid responses recorded just prior to peptide application. Averaged responses recorded in the presence of APHC3 were normalized to averaged control responses. Those are presented as the mean ± s.d. (n = 4). […] (c, d) Cell responses to the acidification of the bath solution from pH 7.4 to pH 5.5 in control and in the presence of the APHC3 applied at different concentrations as indicated. The experimental traces in (c) and in (d, upper trace) illustrate representative responses of EGFP/TRPV1-positive cells. The bottom trace in (d) represents responses of an EGFP/TRPV1-negative cell assayed simultaneously. (e) Acid responses recorded in the presence of APHC3 (90, 160 and 240 nM) normalized to a control response. The data are presented as the mean ± s.d. (n = 5–10). […] In each case, the control response was calculated as an average of the two acid responses recorded just prior to peptide application. The average of the two acid responses recorded after peptide application was calculated and normalized to the control response. Experimental traces in (c, d) were obtained from three different cells. The changes in bath solution pH (continuous lines) and APHC3 applications (thick straight lines) are shown above the fluorescence traces. Cells were stimulated and rinsed by a rapid replacement of the control bath solution with modified bath solution at pH 5.5 with or without APHC3.
HEK-293 cells were cultured in Dulbecco’s modified Eagle’s medium (DMEM) (Life Technologies, Grand Island, NY, USA) containing 10% (vol/vol) fetal bovine serum (Thermo Fisher Scientific, Palm Beach, FL, USA), glutamine (1%) and the antibiotic gentamicin (100 μg/mL) (Life Technologies, Grand Island, NY, USA). The pIRES2-EGFP plasmid harboring rat TRPV1 cDNA was transiently transfected into HEK-293 cells by replacing the growth medium in each well with a transfection mixture, containing 1.6 μg of DNA and 4 μL of Lipofectamine (Life Technologies, Grand Island, NY, USA) in 1 mL of serum-free DMEM. After incubating for 6 h, the transfection mixture was replaced with normal culture medium. Cells were assayed within 48–96 h after transfection.

Take “APHC1: polypeptide modulator of TRPV1 from sea anemone Heteractis crispa; homologous to BPTI/Kunitz type serine-protease inhibitors; produced recombinantly in E. coli (GSICLEPKVVGPCTAYFRRFYFDSETGKCTVFIYGGCEGNGNNFETLRACRAICRA; left off: TRX, end not stated, cleaved)”: in the assay on TRPV1 [1] (more than 200 nM), the “inhibition of capsaicin-induced currents” value is recorded as ~ 32%. Moreover, in the assay on TRPV1 [1] (previous study), the “activity on capsaicin-induced TRPV1 currents, in words” value was “partial antagonist”. Also, in the assay with ASIC3, the “agonistic/antagonistic activity at ASIC3” value was “neither agonistic nor antagonistic activity”.
Consider “APHC3: polypeptide from Heteractis crispa highly homologous to APHC1, differing in four of 56 amino acids; produced recombinantly in E. coli (GSICLEPKVVGPCTAYFPRFYFNSETGKCTPFIYGGCEGNGNNFETLRACRGICRA; left off: TRX, end not stated, cleaved)”, for which, in the assay with TRPV1 [2] (after washout of the polypeptide, Figure 2a,c,d (capsaicin currents and acid responses)), the “reversibility of inhibitory effects” value is on record as “almost completely reversible”. In the assay on TRPV1 [2] (pH 5.5, 160 and 240 nM, Student test, p < 0.05), the “inhibition of acid-induced Ca^2+ transients, significance” value was “statistically significant at 160 and 240 nM”. For the same substance, the “inhibition of acid responses, in words” value with TRPV1 [2] (pH 5.5, APHC3 90 nM, n = 5) is “insignificantly effective”. Besides, the “inhibition of acid responses” value is on record as 15% ± 9% in the assay on TRPV1 [2] (pH 5.5, APHC3 160 nM, n = 7) and 77% ± 14% in the assay with TRPV1 [2] (pH 5.5, APHC3 240 nM, 10 cells). In the assay on ASIC3, the “agonistic/antagonistic activity at ASIC3” value is “neither agonistic nor antagonistic activity”.
